The numbers were not newly measured in patent US20070082063A1, “Risk assessment and correction of membrane damage of the upper GI tract” (priority 2005, published 2007), which cites them from elsewhere.

For data set [1] the following is noted: animals with reduced membrane arachidonate.
The conditions of data set [2]: humans or animals with normal membrane arachidonate content.

Turning to `CCCCC/C=C\C/C=C\C/C=C\CCCCC(=O)O` [GLA, gamma-linolenic acid], the “effect on membrane arachidonate content” value in data set [1] is recorded as “significantly increase”.
For the compound `CCCCC/C=C\C/C=C\C/C=C\C/C=C\CCCC(=O)O` [ARA, arachidonic acid], the “effect on serum or tissue arachidonate content” value in data set [2] was “little effect”.
